Results: ChEMBL document CHEMBL1949518, “Synthesis and biological evaluation of some new 2-pyrazolines bearing benzene sulfonamide moiety as potential anti-inflammatory and anti-cancer agents” (Eur J Med Chem, 2011)

How the values were obtained:
Format in all cases: functional
Rattus norvegicus = assay: Antiinflammatory activity in Wistar rat assessed as inhibition of carrageenan-induced paw edema at 20 mg/kg, po administered 30 mins before carrageenan challenge measured after 3 hrs
CCRF-CEM = assay: Antiproliferative activity against human CCRF-CEM cells assessed as cell growth at 10^-5 M after 48 hrs by SRB assay relative to control; conditions: read-out: Activity
HL-60(TB) = assay: Antiproliferative activity against human HL-60(TB) cells assessed as cell growth at 10^-5 M after 48 hrs by SRB assay relative to control; conditions: HL-60, 48 h, read-out: Activity
K562 = assay: Antiproliferative activity against human K562 cells assessed as cell growth at 10^-5 M after 48 hrs by SRB assay relative to control; conditions: K562, 48 h, read-out: Activity
SR = assay: Antiproliferative activity against human SR cells assessed as cell growth at 10^-5 M after 48 hrs by SRB assay relative to control; conditions: read-out: Activity
HOP-62 = assay: Antiproliferative activity against human HOP62 cells assessed as cell growth at 10^-5 M after 48 hrs by SRB assay relative to control; conditions: HOP-62, 48 h, read-out: Activity
NCI-H226 = assay: Antiproliferative activity against human NCI-H226 cells assessed as cell growth at 10^-5 M after 48 hrs by SRB assay relative to control; conditions: NCI-H226, 48 h, read-out: Activity
NCI-H322M = assay: Antiproliferative activity against human NCI-H322M cells assessed as cell growth at 10^-5 M after 48 hrs by SRB assay relative to control; conditions: read-out: Activity
NCI-H460 = assay: Antiproliferative activity against human NCI-H460 cells assessed as cell growth at 10^-5 M after 48 hrs by SRB assay relative to control; conditions: NCI-H460, 48 h, read-out: Activity
HCT-116 = assay: Antiproliferative activity against human HCT116 cells assessed as cell growth at 10^-5 M after 48 hrs by SRB assay relative to control; conditions: HCT-116, 48 h, read-out: Activity
HCT-15 = assay: Antiproliferative activity against human HCT15 cells assessed as cell growth at 10^-5 M after 48 hrs by SRB assay relative to control; conditions: HCT-15, 48 h, read-out: Activity
KM12 = assay: Antiproliferative activity against human KM12 cells assessed as cell growth at 10^-5 M after 48 hrs by SRB assay relative to control; conditions: KM12, 48 h, read-out: Activity
SW-620 = assay: Antiproliferative activity against human SW620 cells assessed as cell growth at 10^-5 M after 48 hrs by SRB assay relative to control; conditions: SW-620, 48 h, read-out: Activity
SF-268 = assay: Antiproliferative activity against human SF268 cells assessed as cell growth at 10^-5 M after 48 hrs by SRB assay relative to control; conditions: SF-268, 48 h, read-out: Activity
SF-295 = assay: Antiproliferative activity against human SF295 cells assessed as cell growth at 10^-5 M after 48 hrs by SRB assay relative to control; conditions: SF-295, 48 h, read-out: Activity
SF-539 = assay: Antiproliferative activity against human SF539 cells assessed as cell growth at 10^-5 M after 48 hrs by SRB assay relative to control; conditions: SF-539, 48 h, read-out: Activity
SNB-75 = assay: Antiproliferative activity against human SNB75 cells assessed as cell growth at 10^-5 M after 48 hrs by SRB assay relative to control; conditions: SNB-75, 48 h, read-out: Activity
U-251 = assay: Antiproliferative activity against human U251 cells assessed as cell growth at 10^-5 M after 48 hrs by SRB assay relative to control; conditions: U-251, 48 h, read-out: Activity
IGROV-1 = assay: Antiproliferative activity against human IGROV1 cells assessed as cell growth at 10^-5 M after 48 hrs by SRB assay relative to control; conditions: IGROV-1, 48 h, read-out: Activity
OVCAR-3 = assay: Antiproliferative activity against human OVCAR3 cells assessed as cell growth at 10^-5 M after 48 hrs by SRB assay relative to control; conditions: OVCAR-3, 48 h, read-out: Activity
NCI/ADR-RES = assay: Antiproliferative activity against human NCI/ADR-RES cells assessed as cell growth at 10^-5 M after 48 hrs by SRB assay relative to control; conditions: read-out: Activity
SK-OV-3 = assay: Antiproliferative activity against human SKOV3 cells assessed as cell growth at 10^-5 M after 48 hrs by SRB assay relative to control; conditions: SK-OV-3, 48 h, read-out: Activity
786-0 = assay: Antiproliferative activity against human 786-0 cells assessed as cell growth at 10^-5 M after 48 hrs by SRB assay relative to control; conditions: 786-0, 48 h, read-out: Activity
ACHN = assay: Antiproliferative activity against human ACHN cells assessed as cell growth at 10^-5 M after 48 hrs by SRB assay relative to control; conditions: read-out: Activity
RXF 393 = assay: Antiproliferative activity against human RXF393 cells assessed as cell growth at 10^-5 M after 48 hrs by SRB assay relative to control; conditions: RXF 393, 48 h, read-out: Activity
TK-10 = assay: Antiproliferative activity against human TK10 cells assessed as cell growth at 10^-5 M after 48 hrs by SRB assay relative to control; conditions: TK-10, 48 h, read-out: Activity
PC-3 = assay: Antiproliferative activity against human PC3 cells assessed as cell growth at 10^-5 M after 48 hrs by SRB assay relative to control; conditions: PC-3, 48 h, read-out: Activity
DU-145 = assay: Antiproliferative activity against human DU145 cells assessed as cell growth at 10^-5 M after 48 hrs by SRB assay relative to control; conditions: DU-145, 48 h, read-out: Activity
MCF7 = assay: Antiproliferative activity against human MCF7 cells assessed as cell growth at 10^-5 M after 48 hrs by SRB assay relative to control; conditions: MCF7, 48 h, read-out: Activity
MDA-MB-231 = assay: Antiproliferative activity against human MDA-MB-231 cells assessed as cell growth at 10^-5 M after 48 hrs by SRB assay relative to control; conditions: MDA-MB-231, 48 h, read-out: Activity
[1] = Antiproliferative activity against human Hs 578T cells assessed as cell growth at 10^-5 M after 48 hrs by SRB assay relative to control; conditions: read-out: Activity
BT-549 = assay: Antiproliferative activity against human BT549 cells assessed as cell growth at 10^-5 M after 48 hrs by SRB assay relative to control; conditions: BT-549, 48 h, read-out: Activity
LOX IMVI = assay: Antiproliferative activity against human LOXIMVI cells assessed as cell growth at 10^-5 M after 48 hrs by SRB assay relative to control; conditions: read-out: Activity
SK-MEL-5 = assay: Antiproliferative activity against human SK-MEL-5 cells assessed as cell growth at 10^-5 M after 48 hrs by SRB assay relative to control; conditions: SK-MEL-5, 48 h, read-out: Activity

| Structure (SMILES) | inhibition in vivo at 20 mg/kg (Rattus norvegicus) | growth at 10 µM (CCRF-CEM) | growth at 10 µM (HL-60(TB)) | growth at 10 µM (K562) | growth at 10 µM (SR) | growth at 10 µM (HOP-62) | growth at 10 µM (NCI-H226) | growth at 10 µM (NCI-H322M) | growth at 10 µM (NCI-H460) | growth at 10 µM (HCT-116) | growth at 10 µM (HCT-15) | growth at 10 µM (KM12) | growth at 10 µM (SW-620) | growth at 10 µM (SF-268) | growth at 10 µM (SF-295) | growth at 10 µM (SF-539) | growth at 10 µM (SNB-75) | growth at 10 µM (U-251) | growth at 10 µM (IGROV-1) | growth at 10 µM (OVCAR-3) | other results |
| --- | --- | --- | --- | --- | --- | --- | --- | --- | --- | --- | --- | --- | --- | --- | --- | --- | --- | --- | --- | --- | --- |
| COc1ccc(C2CC(c3c(O)cc(C)c(Cl)c3C)=NN2c2ccc(S(N)(=O)=O)cc2)cc1 (stereo not drawn) | 46.7% | 38.7% | 69.1% | 44.1% | 41.5% | 78.1% | 98.7% | 85.1% | 62% | 75.5% | 92.2% | 75% | 94.8% | 76.1% | 152% | 92.3% | 85.1% | 91.3% | 71.9% | 102% | growth at 10 µM (NCI/ADR-RES): 101%; growth at 10 µM (SK-OV-3): 101%; growth at 10 µM (786-0): 92.5%; growth at 10 µM (ACHN): 96.7%; growth at 10 µM (RXF 393): 111%; growth at 10 µM (TK-10): 104%; growth at 10 µM (PC-3): 56.2%; growth at 10 µM (DU-145): 92.4%; growth at 10 µM (MCF7): 71.6%; growth at 10 µM (MDA-MB-231): 71%; growth at 10 µM [1]: 99%; growth at 10 µM (BT-549): 119%; growth at 10 µM (LOX IMVI): 70.6%; growth at 10 µM (SK-MEL-5): 94.4% |
| Cc1cc(O)c(C2=NN(c3ccc(S(N)(=O)=O)cc3)C(c3ccc(Cl)cc3)C2)c(C)c1Cl (stereo not drawn) | 80% | 28% | 24.1% | 25% | -22.2% | 107% | 88.8% | 97.6% | 47.1% | 41.1% | 80.5% | 62.4% | 72.2% | 72.1% | 6.34% | 91.6% | 78.7% | 78.3% | 34.1% | 80.3% | growth at 10 µM (NCI/ADR-RES): 85.7%; growth at 10 µM (SK-OV-3): 106%; growth at 10 µM (786-0): 95.6%; growth at 10 µM (ACHN): 88.6%; growth at 10 µM (RXF 393): 93.4%; growth at 10 µM (TK-10): 113%; growth at 10 µM (PC-3): 13.6%; growth at 10 µM (DU-145): 75.2%; growth at 10 µM (MCF7): 37.2%; growth at 10 µM (MDA-MB-231): 103%; growth at 10 µM [1]: 82.5%; growth at 10 µM (BT-549): 95.7%; growth at 10 µM (LOX IMVI): 82.8%; growth at 10 µM (SK-MEL-5): 79.6% |
